In ChEMBL document CHEMBL5532698, “2,3-Dihydroquinazolin-4(1H)-ones and quinazolin-4(3H)-ones as broad-spectrum cytotoxic agents and their impact on tubulin polymerisation” (RSC Med Chem, 2024):
Calls of active or inactive are those of the source. No cut-off for these calls is given here.

Tests used:
HT-29 [1] = test: Antiproliferative activity against human HT-29 cells assessed as cell growth inhibition incubated for 72 hrs by MTT assay; format: functional
MIA PaCa-2 [2] = test: Induction of G2/M phase cell cycle arrest in human MIA PaCa-2 cells assessed as sub G1 phase cells at 1.0 uM incubated for 24 hrs by PI/RNase staining based analysis (reference value: 4 +/- 2%); format: functional
A-431 [3] = test: Antiproliferative activity against human A-431 cells assessed as cell growth inhibition at 25 uM incubated for 72 hrs by MTT assay relative to control; format: functional
MIA PaCa-2 [4] = test: Induction of G2/M phase cell cycle arrest in human MIA PaCa-2 cells assessed as sub G1 phase cells at 5 uM incubated for 24 hrs by PI/RNase staining based analysis (reference value: 4 +/- 2%); format: functional
NCI-H460 [5] = test: Antiproliferative activity against human NCI-H460 cells assessed as cell growth inhibition at 25 uM incubated for 72 hrs by MTT assay relative to control; format: functional
A2780 [6] = test: Antiproliferative activity against human A2780 cells assessed as cell growth inhibition at 25 uM incubated for 72 hrs by MTT assay relative to control; format: functional
MIA PaCa-2 [7] = test: Induction of G2/M phase cell cycle arrest in human MIA PaCa-2 cells assessed as S phase cells at 1.0 uM incubated for 24 hrs by PI/RNase staining based analysis (reference value: 11 +/- 1%); format: functional
MIA PaCa-2 [8] = test: Induction of G2/M phase cell cycle arrest in human MIA PaCa-2 cells assessed as G1 phase cells at 1.0 uM incubated for 24 hrs by PI/RNase staining based analysis (reference value: 66 +/- 2%); format: functional
[9] = Antiproliferative activity against human SJG2 cells assessed as cell growth inhibition at 25 uM incubated for 72 hrs by MTT assay relative to control; format: functional; conditions: SJ-G2
MIA PaCa-2 [10] = test: Antiproliferative activity against human MIA PaCa-2 cells assessed as cell growth inhibition at 25 uM incubated for 72 hrs by MTT assay relative to control; format: functional
MIA PaCa-2 [11] = test: Induction of G2/M phase cell cycle arrest in human MIA PaCa-2 cells at 5 uM incubated for 24 hrs by PI/RNase staining based analysis (reference value: 20 +/- 1%); format: functional
[12] = Cytotoxicity against human MCF-10A cells assessed as cell growth inhibition at 25 uM incubated for 72 hrs by MTT assay relative to control; format: toxicity, cell-based
DU-145 [13] = test: Antiproliferative activity against human DU-145 cells assessed as cell growth inhibition at 25 uM incubated for 72 hrs by MTT assay relative to control; format: functional
A-431 [14] = test: Antiproliferative activity against human A-431 cells assessed as cell growth inhibition incubated for 72 hrs by MTT assay; format: functional
MIA PaCa-2 [15] = test: Induction of G2/M phase cell cycle arrest in human MIA PaCa-2 cells assessed as G1 phase cells at 5 uM incubated for 24 hrs by PI/RNase staining based analysis (reference value: 66 +/- 2%); format: functional
[16] = Cytotoxicity against human MCF-10A cells assessed as cell growth inhibition incubated for 72 hrs by MTT assay; format: toxicity, cell-based
BE(2)-C [17] = test: Antiproliferative activity against human BE2C cells assessed as cell growth inhibition incubated for 72 hrs by MTT assay; format: functional
MIA PaCa-2 [18] = test: Antiproliferative activity against human MIA PaCa-2 cells assessed as cell growth inhibition incubated for 72 hrs by MTT assay; format: functional
MIA PaCa-2 [19] = test: Induction of G2/M phase cell cycle arrest in human MIA PaCa-2 cells assessed as S phase cells at 5 uM incubated for 24 hrs by PI/RNase staining based analysis (reference value: 11 +/- 1%); format: functional
MCF7 [20] = test: Antiproliferative activity against human MCF7 cells assessed as cell growth inhibition at 25 uM incubated for 72 hrs by MTT assay relative to control; format: functional
[21] = Antiproliferative activity against human SJG2 cells assessed as cell growth inhibition incubated for 72 hrs by MTT assay; format: functional; conditions: SJ-G2
MIA PaCa-2 [22] = test: Induction of G2/M phase cell cycle arrest in human MIA PaCa-2 cells at 1.0 uM incubated for 24 hrs by PI/RNase staining based analysis (reference value: 20 +/- 1%); format: functional
NCI-H460 [23] = test: Antiproliferative activity against human NCI-H460 cells assessed as cell growth inhibition incubated for 72 hrs by MTT assay; format: functional
Tubulin (Homo sapiens) [24] = target: T1, Tubulin (Homo sapiens) (UniProt P68371+Q9H4B7+P0DPH7+P68366+Q13509+Q71U36+P04350+Q3ZCM7+P07437+P68363+Q9BQE3+Q6PEY2+Q13885+Q9BVA1+Q9BUF5); test: Inhibition of tubulin (unknown origin) polymerization assessed as reduction microtubule formation at 10 uM by fluorometric analysis; format: protein-complex assay
U-87 MG [25] = test: Antiproliferative activity against human U87 cells assessed as cell growth inhibition at 25 uM incubated for 72 hrs by MTT assay relative to control; format: functional, U-87MG ATCC
A2780 [26] = test: Antiproliferative activity against human A2780 cells assessed as cell growth inhibition incubated for 72 hrs by MTT assay; format: functional
DU-145 [27] = test: Antiproliferative activity against human DU-145 cells assessed as cell growth inhibition incubated for 72 hrs by MTT assay; format: functional
BE(2)-C [28] = test: Antiproliferative activity against human BE2C cells assessed as cell growth inhibition at 25 uM incubated for 72 hrs by MTT assay relative to control; format: functional
U-87 MG [29] = test: Antiproliferative activity against human U87 cells assessed as cell growth inhibition incubated for 72 hrs by MTT assay; format: functional, U-87MG ATCC
MCF7 [30] = test: Antiproliferative activity against human MCF7 cells assessed as cell growth inhibition incubated for 72 hrs by MTT assay; format: functional
HT-29 [31] = test: Antiproliferative activity against human HT-29 cells assessed as cell growth inhibition at 25 uM incubated for 72 hrs by MTT assay relative to control; format: functional
Tubulin (Homo sapiens) [32] = target: T1, Tubulin (Homo sapiens); test: Induction of tubulin (unknown origin) polymerization assessed as microtubule formation by measuring increase in fluorescence at 10 uM by fluorometric analysis; format: protein-complex assay

COc1ccccc1/C=C/c1nc2ccccc2c(=O)[nH]1
GI50 (HT-29 [1]): 260 nM | Activity (MIA PaCa-2 [2]): 5% | inhibition at 25 µM (A-431 [3]): > 100% | Activity (MIA PaCa-2 [4]): 6% | inhibition at 25 µM (NCI-H460 [5]): > 100% | inhibition at 25 µM (A2780 [6]): > 100% | Activity (MIA PaCa-2 [7]): 12% | Activity (MIA PaCa-2 [8]): 56% | inhibition at 25 µM [9]: > 100% | inhibition at 25 µM (MIA PaCa-2 [10]): > 100% | Activity (MIA PaCa-2 [11]): 78% | inhibition at 72 h, 25 µM [12]: > 100% | inhibition at 25 µM (DU-145 [13]): > 100% | GI50 (A-431 [14]): 330 nM | Activity (MIA PaCa-2 [15]): 10% | GI50 at 72 h [16]: 560 nM | GI50 (BE(2)-C [17]): 310 nM | GI50 (MIA PaCa-2 [18]): 370 nM | Activity (MIA PaCa-2 [19]): 6% | inhibition at 25 µM (MCF7 [20]): > 100% | GI50 [21]: 790 nM | Activity (MIA PaCa-2 [22]): 27% | GI50 (NCI-H460 [23]): 420 nM | inhibition (Tubulin (Homo sapiens) [24]): Active | inhibition at 25 µM (U-87 MG [25]): > 100% | GI50 (A2780 [26]): 330 nM | GI50 (DU-145 [27]): 900 nM | inhibition at 25 µM (BE(2)-C [28]): > 100% | GI50 (U-87 MG [29]): 1400 nM | GI50 (MCF7 [30]): 350 nM | inhibition at 25 µM (HT-29 [31]): > 100%

Cc1ccc2[nH]cc(-c3nc4ccccc4c(=O)[nH]3)c2c1
GI50 (HT-29 [1]): 390 nM | Activity (Tubulin (Homo sapiens) [32]; filed as activator): Active | GI50 (A-431 [14]): 570 nM | GI50 at 72 h [16]: 1200 nM | GI50 (BE(2)-C [17]): 630 nM | GI50 (MIA PaCa-2 [18]): 1000 nM | GI50 [21]: > 50000 nM | GI50 (NCI-H460 [23]): 3700 nM | GI50 (A2780 [26]): 1300 nM | GI50 (DU-145 [27]): > 50000 nM | GI50 (U-87 MG [29]): 16000 nM | GI50 (MCF7 [30]): 280 nM

COc1ccc(/C=C/c2nc3ccccc3c(=O)[nH]2)cc1
GI50 (HT-29 [1]): 3800 nM | inhibition at 25 µM (A-431 [3]): 45% | inhibition at 25 µM (NCI-H460 [5]): 60% | inhibition at 25 µM (A2780 [6]): 66% | inhibition at 25 µM [9]: 89% | inhibition at 25 µM (MIA PaCa-2 [10]): 67% | inhibition at 72 h, 25 µM [12]: 60% | inhibition at 25 µM (DU-145 [13]): 41% | GI50 (A-431 [14]): 33000 nM | GI50 at 72 h [16]: 11000 nM | GI50 (BE(2)-C [17]): 4400 nM | GI50 (MIA PaCa-2 [18]): 5500 nM | inhibition at 25 µM (MCF7 [20]): > 100% | GI50 [21]: 6400 nM | GI50 (NCI-H460 [23]): 11000 nM | inhibition (Tubulin (Homo sapiens) [24]): Active | inhibition at 25 µM (U-87 MG [25]): 24% | GI50 (A2780 [26]): 12000 nM | GI50 (DU-145 [27]): 45000 nM | inhibition at 25 µM (BE(2)-C [28]): 66% | GI50 (U-87 MG [29]): > 50000 nM | GI50 (MCF7 [30]): 2600 nM | inhibition at 25 µM (HT-29 [31]): 78%

COc1cccc(/C=C/c2nc3ccccc3c(=O)[nH]2)c1
GI50 (HT-29 [1]): 900 nM | Activity (Tubulin (Homo sapiens) [32]): inactive | inhibition at 25 µM (A-431 [3]): > 100% | inhibition at 25 µM (NCI-H460 [5]): > 100% | inhibition at 25 µM (A2780 [6]): > 100% | inhibition at 25 µM [9]: 100% | inhibition at 25 µM (MIA PaCa-2 [10]): 93% | inhibition at 72 h, 25 µM [12]: 95% | inhibition at 25 µM (DU-145 [13]): 78% | GI50 (A-431 [14]): 2600 nM | GI50 at 72 h [16]: 2200 nM | GI50 (BE(2)-C [17]): 2100 nM | GI50 (MIA PaCa-2 [18]): 2900 nM | inhibition at 25 µM (MCF7 [20]): > 100% | GI50 [21]: 2800 nM | GI50 (NCI-H460 [23]): 2200 nM | inhibition at 25 µM (U-87 MG [25]): 75% | GI50 (A2780 [26]): 2600 nM | GI50 (DU-145 [27]): 3900 nM | inhibition at 25 µM (BE(2)-C [28]): 99% | GI50 (U-87 MG [29]): 10000 nM | GI50 (MCF7 [30]): 470 nM | inhibition at 25 µM (HT-29 [31]): > 100%
